# Results reported in patent US20170057958A1, “ENANTIOMERS OF THE N-(2-AMINO-5-FLUORO-2-METHYLPENTYL)-8-[(2,6-DIFLUOROBENZYL)OXY]-2-METHYLIMIDAZO[1,2-A]PYRIDINE-3-CARBOXAMIDE, AS WELL AS OF THE DI- AND TRIFLUORO DERIVATIVES FOR THE TREATMENT OF CARDIOVASCULAR DISEASES” (BAYER PHARMA AKTIENGESELLSCHAFT, priority 2014, published 2017).
# Tested on: recombinant guanylate cyclase reporter cell line
# Assay: Effect on a recombinant guanylate cyclase reporter cell line
# Assay type: cell-based
# Settings: in some cases mean values for individual determinations
# Protocol: B-2. Effect on a Recombinant Guanylate Cyclase Reporter Cell Line
# The cellular activity of the compounds according to the invention is determined using a recombinant guanylate cyclase reporter cell line, as described in F. Wunder et al., Anal. Biochem. 339, 104-112 (2005).
# Representative MEC values (MEC=minimum effective concentration) for the compounds of the invention are shown in the table below (in some cases as mean values for individual determinations): […]
row,Structure (SMILES),MEC (minimum effective concentration)
1,"Cc1nc2c(OCc3c(F)cccc3F)cccn2c1C(=O)NCC(C)(N)CC(F)F (single isomer, unassigned; enantiomer b) [Example 4, ent-N-(2-amino-4,4-difluoro-2-methylbutyl)-8-[(2,6-difluorobenzyl)oxy]-2-methylimidazo[1,2-a]pyridine-3-carboxamide (enantiomer B)]",0.3 µM
2,"Cc1nc2c(OCc3c(F)cccc3F)cccn2c1C(=O)NCC(C)(N)CCC(F)(F)F (single isomer, unassigned; enantiomer b) [Example 6, ent-N-(2-amino-5,5,5-trifluoro-2-methylpentyl)-8-[(2,6-difluorobenzyl)oxy]-2-methylimidazo[1,2-a]pyridine-3-carboxamide (enantiomer B)]",0.03 µM
3,"Cc1nc2c(OCc3c(F)cccc3F)cccn2c1C(=O)NCC(C)(N)CC(F)F (single isomer, unassigned; enantiomer a) [Example 3, ent-N-(2-amino-4,4-difluoro-2-methylbutyl)-8-[(2,6-difluorobenzyl)oxy]-2-methylimidazo[1,2-a]pyridine-3-carboxamide (enantiomer A)]",0.3 µM
4,"Cc1nc2c(OCc3c(F)cccc3F)cccn2c1C(=O)NCC(C)(N)CCC(F)(F)F (single isomer, unassigned; enantiomer a) [Example 5, ent-N-(2-amino-5,5,5-trifluoro-2-methylpentyl)-8-[(2,6-difluorobenzyl)oxy]-2-methylimidazo[1,2-a]pyridine-3-carboxamide (enantiomer A)]",0.1 µM
5,"Cc1nc2c(OCc3c(F)cccc3F)cccn2c1C(=O)NCC(C)(N)CCCF (single isomer, unassigned; enantiomer b) [Example 2, ent-N-(2-amino-5-fluoro-2-methylpentyl)-8-[(2,6-difluorobenzyl)oxy]-2-methylimidazo[1,2-a]pyridine-3-carboxamide (enantiomer B)]",0.3 µM
6,"Cc1nc2c(OCc3c(F)cccc3F)cccn2c1C(=O)NCC(C)(N)CCCF (single isomer, unassigned; enantiomer a) [Example 1, ent-N-(2-amino-5-fluoro-2-methylpentyl)-8-[(2,6-difluorobenzyl)oxy]-2-methylimidazo[1,2-a]pyridine-3-carboxamide (enantiomer A)]",0.3 µM
7,"Cc1nc2c(OCc3c(F)ccc(F)c3F)cccn2c1C(=O)NCC(C)(N)CCC(F)(F)F (single isomer, unassigned; enantiomer b) [Example 7, ent-N-(2-amino-5,5,5-trifluoro-2-methylpentyl)-2-methyl-8-[(2,3,6-trifluorobenzyl)oxy]imidazo[1,2-a]pyridine-3-carboxamide (enantiomer B)]",0.09 µM
